According to patent publication US20090203783A1, “THERAPEUTIC AGENT FOR ACUTE CEREBRAL INFARCT” (ONO PHARMACEUTICAL CO., LTD., priority 2005, published 2009):

Tests used:
Assay type in all cases: in vivo, human
[1] = tested on: patients of acute cerebral infarction; test: Example 2 clinical trial, safety (adverse events); conditions: 0.4, 4 or 8 mg/kg/hr iv, 7 days
Protocol: (§1) As a clinical trial, a double blind placebo-controlled parallel group study was carried out under the following conditions using patients of acute cerebral infarction as the object.
(§2) A total of 7 times for one hour intravenous continuous administration at intervals of about 24 hours in each group (administration period: 7 days).
(§3) Frequency of adverse event and contents thereof (symptom, causal relation and the like)

[2] = tested on: patients of acute cerebral infarction; test: Example 3 clinical trial, safety (adverse events); conditions: 8 or 12 mg/kg/hr iv, 7 days
Protocol: as §1, §2, §3

[3] = tested on: patients of acute cerebral infarction; test: Example 3 clinical trial, efficacy evaluation items; conditions: 7 days
Protocol: as §1, §2
(§4) Symptoms of patients were evaluated after about 1 month or after about 3 months from the commencement of the administration, in accordance with the methods described in the aforementioned [EFFICACY EVALUATION ITEMS] of Example 1.

[4] = tested on: patients of acute cerebral infarction; test: Example 2 clinical trial, modified Rankin Scale (mRS); conditions: 7 days
Protocol: (§5) Evaluation method: Symptoms of patients were evaluated in accordance with the aforementioned list of marks of NIH Stroke Scale, about 1 month after or about 3 months after the commencement of administration. (2) Modified Rankin Scale (mRS) Evaluation method: Symptoms of patients were scored by classifying the symptoms of patients into the following grades of from 0 to 5, about 1 month after or about 3 months after the commencement of administration. 0: No symptoms at all. 1: No significant disability despite symptoms; able to carry out all usual duties and activities. 2: Slight disability; unable to carry out all previous activities, but able to look after own affairs without assistance. 3: Moderate disability; requiring some help, but able to walk without assistance. 4: Moderately severe disability; unable to walk without assistance and unable to attend to own bodily needs without assistance. 5: Severe disability; bedridden, incontinent and requiring constant nursing care and attention.
as §1
(e) A patient whose period of time from the onset of cerebral infarction until commencement of administration is 72 hour or less;
as §2, §4

[5] = tested on: patients of acute cerebral infarction; test: Example 1 clinical trial, modified Rankin Scale (mRS); conditions: 10 mg/kg/hr iv, 5 days, after 3 months, administration 5.5 to 6 hours from onset
Protocol: (§6) As a clinical trial, a double blind placebo-controlled parallel group study was carried out under the following conditions with patients of acute cerebral infarction as the object.
(c) A patient who undergoes randomization by the study within 6 hours from the first infarction symptom and undergoes the first administration by the blind test (When the patient awoke under an infarction symptom which was not observed before sleeping, start of the infarction symptom is regarded as the started time of sleeping. When the started time is not clear, start of the infarction symptom is regarded as the time when the patient was lastly normal.);
(f) A patient defined as a score of from 11 to 22 on NIH Stroke Scale, within 1 hour before the first administration;
(§7) A total of 5 times for one hour intravenous continuous administration at intervals of about 24 hours in each group (administration period: 5 days).
as §5

[6] = tested on: patients of acute cerebral infarction; test: Example 1 clinical trial, safety (adverse events); conditions: 4 or 10 mg/kg/hr iv, 5 days
Protocol: as §6, §7, §3

[7] = tested on: patients of acute cerebral infarction; test: Example 1 clinical trial, Stroke Impact Scale (SIS) items 1a-1d, 4a; conditions: about 3 months, 5 hours or more from onset
Protocol: as §6, §7
Based on the results of the above-mentioned efficacy evaluation items and safety evaluation items, therapeutic effect of the intravenous continuous administration of (2R)-2-propyloctanoic acid to cerebral infarction patients was evaluated. Additionally, in order to examine the therapeutic effect more in detail, improving effect of the intravenous continuous administration of (2R)-2-propyloctanoic acid for each of (a) [Arm strength], (b) [Grip], (c) strength of the legs [Leg], (d) strength of the ahead of the ankle [Ankle/foot], and (e) language [Naming] was evaluated after about 3 months from the commencement of administration, using the items 1a, 1b, 1c, Id and 4a of the Stroke Impact Scale (SIS). In this connection, the Stroke Impact Scale is a conventionally known evaluation method and can be obtained from an internet <URL: www.chrp.org/, www.strokecenter.org, www2.kumc.edu/coa/> and the like. Specifically, the evaluation of 1a, 1b, 1c and id is carried out by a mode of selecting any one of the answers, A lot of strength, Quite a bit of strength, Some strength, A little strength and No strength at all, for the following questions
and five scores, four scores, 3 scores, 2 scores and 1 score are given in response to the respective answers.
Additionally, the evaluation of 4a is carried out by a mode of selecting any one of the answers, Not difficult at all, A little difficult, Somewhat difficult and Very difficult and Extremely difficult, for the following questions
In this case, the group P represents a placebo administration group, and the group L represents a (2R)-2-propyloctanoic acid 4 mg/kg/hr administration group, and the group H represents a (2R)-2-propyloctanoic acid 10 mg/kg/hr administration group. The evaluation result of each item was shown by a form of “(the number of patients having an evaluation score of 4 or more)/(the number of patients evaluated)”.

CCCCCC[C@@H](CCC)C(=O)O [(2R)-2-propyloctanoic acid]
severe adverse event having a different frequency between drug group and placebo group [1]: not found
side effect in which its frequency increases depending on the dose [1]: not found
severe adverse event having a different frequency between drug group and placebo group [2]: not found
side effect in which its frequency increases depending on the dose [2]: not found
improving effects of the items shown in the efficacy evaluation items ([3]; 8 mg/kg/hr iv): excellent improving effects
improving effects of the items shown in the efficacy evaluation items ([3]; 12 mg/kg/hr iv): excellent improving effects
ratio of mRS occupying 0 to 2 ([4]; 0.4 mg/kg/hr iv, after 3 months, JCS I-1 to I-3 and NIH Stroke Scale 7 or more): 48.1%
ratio of mRS occupying 0 to 2 ([4]; 4 mg/kg/hr iv, after 3 months, JCS I-1 to I-3 and NIH Stroke Scale 7 or more): 47.9%
ratio of mRS occupying 0 to 2 ([4]; 8 mg/kg/hr iv, after 1 month): 45.7%
ratio of mRS occupying 0 to 2 ([4]; 8 mg/kg/hr iv, after 3 months): 58.1%
ratio of mRS occupying 0 to 2 ([4]; 8 mg/kg/hr iv, after 3 months, JCS I-1 to I-3 and NIH Stroke Scale 7 or more): 63.0%
ratio of mRS occupying 0 to 2 ([4]; 8 mg/kg/hr iv, after 3 months, patients with JCS I-1 to I-3 before administration): 69.1%
ratio of the number of patients whose mRS scores became 0 to 3 [5]: 31.5%
ratio of the number of patients whose mRS scores became 0 to 3 ([5]; patients of less than 80 years, NIH Stroke Scale 11 to 18): 46.0%
ratio of the number of patients whose mRS scores became 0 to 3 ([5]; patients of less than 80 years): 39.0%
severe adverse events having a different frequency between drug group and placebo group [6]: not found
side effect in which its frequency increases depending on the dose [6]: not found
SIS Ankle/foot: (number of patients having an evaluation score of 4 or more)/(number of patients evaluated) ([7]; Group H, 10 mg/kg/hr): 60/100
SIS Ankle/foot: ratio of patients with evaluation score of 4 or more ([7]; Group H, 10 mg/kg/hr): (60%)
SIS Arm strength: (number of patients having an evaluation score of 4 or more)/(number of patients evaluated) ([7]; Group H, 10 mg/kg/hr): 44/100
SIS Arm strength: ratio of patients with evaluation score of 4 or more ([7]; Group H, 10 mg/kg/hr): (44%)
SIS Grip: (number of patients having an evaluation score of 4 or more)/(number of patients evaluated) ([7]; Group H, 10 mg/kg/hr): 46/100
SIS Grip: ratio of patients with evaluation score of 4 or more ([7]; Group H, 10 mg/kg/hr): (46%)
SIS Leg: (number of patients having an evaluation score of 4 or more)/(number of patients evaluated) ([7]; Group H, 10 mg/kg/hr): 59/100
SIS Leg: ratio of patients with evaluation score of 4 or more ([7]; Group H, 10 mg/kg/hr): (59%)
SIS Naming: (number of patients having an evaluation score of 4 or more)/(number of patients evaluated) ([7]; Group H, 10 mg/kg/hr): 65/100
SIS Naming: ratio of patients with evaluation score of 4 or more ([7]; Group H, 10 mg/kg/hr): (65%)
SIS Ankle/foot: (number of patients having an evaluation score of 4 or more)/(number of patients evaluated) ([7]; Group L, 4 mg/kg/hr): 39/88
SIS Ankle/foot: ratio of patients with evaluation score of 4 or more ([7]; Group L, 4 mg/kg/hr): (44%)
SIS Arm strength: (number of patients having an evaluation score of 4 or more)/(number of patients evaluated) ([7]; Group L, 4 mg/kg/hr): 34/88
SIS Arm strength: ratio of patients with evaluation score of 4 or more ([7]; Group L, 4 mg/kg/hr): (39%)
SIS Grip: (number of patients having an evaluation score of 4 or more)/(number of patients evaluated) ([7]; Group L, 4 mg/kg/hr): 36/88
SIS Grip: ratio of patients with evaluation score of 4 or more ([7]; Group L, 4 mg/kg/hr): (41%)
SIS Leg: (number of patients having an evaluation score of 4 or more)/(number of patients evaluated) ([7]; Group L, 4 mg/kg/hr): 46/88
SIS Leg: ratio of patients with evaluation score of 4 or more ([7]; Group L, 4 mg/kg/hr): (52%)
SIS Naming: (number of patients having an evaluation score of 4 or more)/(number of patients evaluated) ([7]; Group L, 4 mg/kg/hr): 58/88
SIS Naming: ratio of patients with evaluation score of 4 or more ([7]; Group L, 4 mg/kg/hr): (66%)
